Assay [1] deals with T1, hDRR4 (Homo sapiens, UniProt Q96LB2). The assay can be described thus: FLIPR calcium assay, HEK293 cells transiently co-transfected with hDRR4 and Gα16. Also noted: The full length reading frame was inserted into the mammalian expression vector pcDNA3; expressed in transfected cells; host or cells: HEK293. It counts as cell-based. The method, then: (§1) The hDRR4 expression plasmid or the hDRR7 expression plasmid was transiently co-transfected with a Gα16-pcDNA3 contruct using the FuGENE 6 reagent (Roche Molecular Biochemicals, Mannheim, Germany) into HEK293 cells. The cells were loaded with Fluo-4 (Molecular Probes, Eugene, Oreg., U.S.A.) according to the recommendations of the supplier. Subsequently the cells were assayed in the FLIPR instrument (Molecular Devices, Sunnyvale, Calif., U.S.A.) for Ca^2+ transients.
(§2) Activation of orphan GPCR hDRR4 (SEQ ID NO:2) by the hDRR binding fragment of EPF (SEQ ID NO:8) at a test concentration of 150 nM was measured in Hek293 cells co-transfected with Gα16-pcDNA. Relative fluorescence units (RFU) were determined by loading the cells with Fluo-4 (Molecular Probes, Eugene, Oreg., U.S.A.).
(§3) The hDRR4 expression plasmid or the hDRR7 expression plasmid was transiently co-transfected with a Gα16-pcDNA3 construct using the FuGENE 6 reagent (Roche Molecular Biochemicals, Mannheim, Germany) into HEK293 cells. The cells were loaded with Fluo4 (Molecular Probes, Eugene, Oreg., U.S.A.) according to the recommendations of the supplier. Subsequently the cells were assayed in the FLIPR instrument (Molecular Devices, Sunnyvale, Calif., U.S.A.) for Ca^2+ transients.
(§4) The purified peptides or dried tissue fractions were dissolved in calcium buffer and loaded onto regular multi-well 96 plates. Subsequently the cells were assayed in the FLIPR instrument (Molecular Devices, Sunnyvale, Calif., U.S.A.) for Ca^2+ transients. For the EPF-related peptides the following pEC50 values were determined;

Assay [2] deals with T2, GPCR RC56.3.1 (adenine receptor) (Rattus norvegicus, UniProt Q7TN49).
T2 construct: expressed in transfected cells; host or cells: COS cells (membranes)
T2 sequence (Q7TN49 1-304): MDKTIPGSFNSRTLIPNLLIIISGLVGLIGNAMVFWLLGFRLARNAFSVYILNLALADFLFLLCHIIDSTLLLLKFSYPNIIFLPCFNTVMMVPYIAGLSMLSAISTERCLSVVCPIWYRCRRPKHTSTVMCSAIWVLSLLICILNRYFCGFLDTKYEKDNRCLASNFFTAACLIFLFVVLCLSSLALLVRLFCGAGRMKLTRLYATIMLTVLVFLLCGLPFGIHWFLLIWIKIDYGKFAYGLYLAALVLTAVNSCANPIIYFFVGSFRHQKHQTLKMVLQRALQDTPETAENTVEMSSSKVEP
The assay can be described thus: [3H]Adenine binding to RC56.1.3 transfected cells. The conditions noted are these: tritiated adenine. The procedure:
(§5) The membranes were prepared as total particulate fractions. The cell lines were cultured to 90% confluency on 145 mm petri dishes and treated with 5 mM sodium butyrate, 24 hours before collection. The culturing medium was removed and the cells were washed twice with ice-cold phosphate-buffered saline (PBS w/o Ca^2+ and Mg^2+), scraped from the plates in 50 mM Tris-HCl buffer, pH 7.4, and collected by centrifugation (10 minutes at 16,000 RPM at 4° C.). The cell pellet was re-suspended in hypotonic 5 mM Tris-HCl buffer, pH 7.4, and homogenized with an Ultra Turrax homogenizer. The homogenate was centrifuged at 18,000 RPM for 20 minutes at 4° C. The final pellet was re-suspended in 50 mM Tris-HCl buffer, pH 7.4 and stored in aliquots at −70° C. A protein determination was performed using the Bradford protein assay (Biorad) using bovine serum albumin (BSA) as standard.
(§6) [^3H]Adenine binding experiments were performed to characterize transiently transfected cell lines. Membranes were thawed on ice and diluted in 50 mM HEPES buffer, pH 7.4 supplemented with 10 mM MgCl2 and 1 mM EGTA. […] Samples were counted in a β-scintillation counter after at least 6 hours to permit the glass fiber filters to become uniformly translucent. […]
(§7) Specific binding was calculated as difference between counts in the presence and absence of 1 μM unlabeled adenine.

The target in assay [3] is T1, hDRR4. The assay can be described thus: [3H]Adenine binding to membranes of hDRR4 transfected cells. The conditions noted are these: tritiated adenine. The procedure:
as §5, §6, §7

For another assay, the target named is T3, hDRR7 receptor (Homo sapiens, UniProt Q96LB1).
T3 construct: expressed in transfected cells; host or cells: HEK293
T3 sequence (Q96LB1 1-330): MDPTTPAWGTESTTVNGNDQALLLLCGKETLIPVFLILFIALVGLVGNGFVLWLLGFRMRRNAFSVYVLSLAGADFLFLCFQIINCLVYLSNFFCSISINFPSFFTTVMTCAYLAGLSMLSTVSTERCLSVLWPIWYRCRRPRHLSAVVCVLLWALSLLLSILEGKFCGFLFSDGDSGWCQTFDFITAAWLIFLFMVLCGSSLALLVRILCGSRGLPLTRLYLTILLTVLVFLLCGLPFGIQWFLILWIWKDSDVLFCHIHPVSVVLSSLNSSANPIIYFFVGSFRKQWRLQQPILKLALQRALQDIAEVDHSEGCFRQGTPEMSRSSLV
The assay can be described thus: FLIPR calcium assay, HEK293 cells transiently co-transfected with hDRR7 and Gα16. The class given is cell-based. Conditions: for EC50: MrgX2 taken as hDRR7, FLIPR Ca2+ transients (FIG. 10), read-out: MrgX2 (pEC50) (converted). The procedure:
as §1
The hDRR7 expression plasmid was transiently co-transfected with a Gα16-pcDNA3 contruct using the FuGENE 6 reagent (Roche Molecular Biochemicals, Mannheim, Germany) into HEK293 cells. The cells were loaded with Fluo-4 (Molecular Probes, Eugene, Oreg., U.S.A.) according to the recommendations of the supplier. Subsequently the cells were assayed in the FLIPR instrument (Molecular Devices, Sunnyvale, Calif., U.S.A.) for Ca^2+ transients.
(§8) Activation of orphan GPCR hDRR7 (SEQ ID NO:12) by the HDRR binding fragment of EPF (SEQ ID NO: 8) at a test concentration of 150 nM after transient co-transfection with Gα16-pcDNA into HEK293 cells. Relative fluorescence units (RFU) were determined by loading the cells with Fluo-4 (Molecular Probes, Eugene, Oreg., U.S.A.).
as §3, §4

Assay [4] relates to Hek 293 cells only transfected with the Gα16-pcDNA expression vector. The assay can be described thus: FLIPR calcium assay, control cells without receptor. It counts as cell-based, human. Conditions: test concentration 150 nM, no hDRR receptor (FIG. 3, FIG. 4). The method, then:
as §1, §2, §8

Assay [5] deals with T1, hDRR4. The assay can be described thus: Stimulation of hDRR4 with angiotensin II and III (re-test of WO 99/32519). Conditions: claimed in WO 99/32519; re-examined by present inventors.
In assay [6] the target is T4, human Dorsal Root Receptor 4 (hDRR4) (human, UniProt Q96LB2 1-322). The assay can be described thus: cell-based or functional assay.
The target in assay [7] is T5, human Dorsal Root Receptor 7 (hDRR7) (human, UniProt Q96LB1 1-330).
T5 sequence: T3 sequence (Q96LB1 1-330)
The assay can be described thus: cell-based or functional assay.

The target of assay [8] is T4, human Dorsal Root Receptor 4 (hDRR4). The assay can be described thus: cell-based or functional assay. The source holds these as a separate data set.
The target in assay [9] is T5, human Dorsal Root Receptor 7 (hDRR7). The assay can be described thus: cell-based or functional assay. The source holds these as a separate data set.
Where [10] appears, read: MrgX1 = hDRR4, FLIPR Ca2+ transients (FIG. 9), read-out: MrgX1 (pEC50) (converted).

Where “and” joins values, the source holds several entries; their conditions need not be identical. Identical values can stand only once. Like-named read-outs stand apart in the source and are kept apart here. Where no end group is shown, it is not given here.

T4 sequence (Q96LB2 whole entry): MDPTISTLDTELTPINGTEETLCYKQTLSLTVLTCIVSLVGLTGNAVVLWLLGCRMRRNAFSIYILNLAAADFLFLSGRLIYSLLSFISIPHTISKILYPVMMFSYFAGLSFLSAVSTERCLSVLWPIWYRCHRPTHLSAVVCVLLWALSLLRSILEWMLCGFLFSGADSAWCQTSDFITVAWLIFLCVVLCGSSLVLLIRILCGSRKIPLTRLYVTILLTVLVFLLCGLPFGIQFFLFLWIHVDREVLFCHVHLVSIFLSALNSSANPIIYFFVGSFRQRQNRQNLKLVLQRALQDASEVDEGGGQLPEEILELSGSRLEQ
T1 sequence (Q96LB2 whole entry): as above

Take `Nc1ncnc2nc[nH]c12` [adenine]: the “Specific response on hDRR4 in FLIPR-based cellular assay” value at hDRR4 [1] (HEK293 with and without co-transfection of chimeric G proteins or Gα16) was “no specific response”. In addition, in [2], the “Specific adenine binding to RC56.1.3 transfected cells” value is recorded as “clear specific adenine binding”. Besides, the “Specific adenine binding to hDRR4” value on hDRR4 [3] was “no specific adenine binding”.

With “AFRKFLPLFDRVLVERSA [SEQ ID NO:8, AFRKFLPLFDRVLVERSA]”, the “Activation of hDRR7 (relative fluorescence units)” value at hDRR7 receptor (test concentration 150 nM, Fluo-4 (FIG. 4)) is reported as “Activation”. For the same molecule, the EC50 at hDRR4 [1] (FLIPR calcium assay, different test concentrations (FIG. 7), read-out: EC50-value on hDRR4 receptor) was 10.6 to 12 nM and 12 nM. For the same molecule, the “Activation of hDRR4 (relative fluorescence units)” value at hDRR4 [1] (test concentration 150 nM, Fluo-4 (FIG. 3)) was “Activation”. In addition, the “Response of cells transfected with Gα16 only” value in assay [4] is given as “did not response”.

As to “LGQAFRKFLPLFDRVL [EPF 1-16, LGQAFRKFLPLFDRVL]”, the results for the EC50 at hDRR7 receptor and at hDRR4 [1] (setting [10]) were 873 nM and 15.1 nM, respectively.

Turning to “LGQAFRKFLPLFDRVLVE [EPF 1-18, LGQAFRKFLPLFDRVLVE]”, the EC50 at hDRR7 receptor was 820 nM; on hDRR4 [1] (setting [10]), 99.3 nM.

With “angiotensin II (DRVYIHPF; Angiotensin-2; UniProt P01019 25-32, looked up)”, the “Stimulation of hDRR4 by angiotensin (angiotensin receptor characterization)” value in the assay with hDRR4 [5] is “could not be confirmed”.

As for angiotensin III, the “Stimulation of hDRR4 by angiotensin (angiotensin receptor characterization)” value on hDRR4 [5] is recorded as “could not be confirmed”.

Take LGQAFRKFLPLFDRVL [EPF 1-16 (LGQAFRKFLPLFDRVL, SEQ ID NO: 21)]: the figures for the “pEC50, FLIPR Ca2+ transients” value in assay [6] and in assay [7] were 7.82 pEC50 and 6.06 pEC50, respectively.

As for LGQAFRKFLPLFDRVLVE [EPF 1-18 (LGQAFRKFLPLFDRVLVE, SEQ ID NO: 19)], the “pEC50, FLIPR Ca2+ transients” value in assay [6] amounted to 7 pEC50; in assay [7] it was 6.09 pEC50.

In the case of AFRKFLPLFDRVLVERSA [hDRR binding fragment of EPF (SEQ ID NO:8)], in assay [8], the EC50-value is 10.6 nM and 6 to 12 nM. In addition, the figures for the “EC50-value, FLIPR calcium assay” value in assay [8] and in assay [9] were 12 nM and 354 nM, respectively.

The record behind these values is patent publication US20040235722A1, “Epf receptor assays, compounds and therapeutic compositions” (priority 2001, published 2004).
